In patent EP4610269A1, “UROKINASE PLASMINOGEN ACTIVATOR SURFACE RECEPTOR (UPAR) LIGANDS FOR DIAGNOSTIC OR THERAPEUTIC USE” (3B Pharmaceuticals GmbH, priority 2024, dated 2025):
*1 amine or outer side, *2 acyl side, *3 side chain or, on linkers, in order; H or OH if unused. Where a SMILES comes first, the peptide text is derived from it. Bridges are numbered along the chain shown (N, C = ends). [ ]: non-standard residue; d: D form. The star is where a group is joined. DOTA = O=C(O)CN1CCN(CC(=O)O)CCN(CC(=O)*)CCN(CC(=O)O)CC1; Phe(4-NO2) = N[C@@H](Cc1ccc([N+](=O)[O-])cc1)C(=O)O; NOTA = O=C(O)CN1CCN(CC(=O)O)CCN(CC(=O)*)CC1; Pro(cis-4-F) = O=C(O)[C@@H]1C[C@H](F)CN1; Dopa = N[C@@H](Cc1ccc(O)c(O)c1)C(=O)O; Hyp = O=C(O)[C@@H]1C[C@@H](O)CN1; 3Pal = N[C@@H](Cc1cccnc1)C(=O)O; Pentanoyl(4-Me) = CC(C)CCC(=O)*; Tic = O=C(O)[C@@H]1Cc2ccccc2CN1; Cit = NC(=O)NCCC[C@H](N)C(=O)O; Butoxycarbonyl = CCCCOC(=O)*; Nle = CCCC[C@H](N)C(=O)O; Nva = CCC[C@H](N)C(=O)O; Pentanoyl = CCCCC(=O)*; CO = O=C([*:1])[*:2]; NHBu = CCCCN*

How the values were obtained:
human uPAR (uPAR-Fc) = biological target: T1, human uPAR (uPAR-Fc) (Homo sapiens, UniProt Q03405); experiment: Surface plasmon resonance (SPR) assay, single cycle kinetics; format: binding; conditions: pKD category for uPAR SPR activity assay; uPAR-Fc on Protein A-Chip, 25°C; read-out: pKD CAT (converted)
T1 construct: comprising amino acids Leu23-Arg303 according to UniProt entry Q03405.1; purchased R&D Systems 10378-UK-100
Summary of the method: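 uPAR-Fc (Leu23-Arg303 extracellular domains, human IgG1 Fc) captured on Protein A chip to ~2000 RU; single-cycle kinetics at 25°C in HEPES running buffer pH 7.4 with 0.1% DMSO. KD from double-referenced sensorgrams fitted to 1:1 Langmuir model, reported as pKD.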

[1] = biological target: T2, uPAR-expressing HEC-265 human endometrial adenocarcinoma cells (Homo sapiens, UniProt Q03405); experiment: Competitive FACS binding assay; conditions: pIC50 category of FACS binding
T2 construct: Cell surface uPAR-expressing HEC-265 human endometrial adenocarcinoma cells; host or cells: HEC-265
Summary of the method: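 HEC-265 cells incubated 1 h at 4 °C with 10 nM biotinylated uPAR peptide tracer plus increasing test compound, then stained with APC-streptavidin on ice. Median APC fluorescence by flow cytometry; 4PL fit gives pIC50.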

T2 sequence (Q03405 23-335): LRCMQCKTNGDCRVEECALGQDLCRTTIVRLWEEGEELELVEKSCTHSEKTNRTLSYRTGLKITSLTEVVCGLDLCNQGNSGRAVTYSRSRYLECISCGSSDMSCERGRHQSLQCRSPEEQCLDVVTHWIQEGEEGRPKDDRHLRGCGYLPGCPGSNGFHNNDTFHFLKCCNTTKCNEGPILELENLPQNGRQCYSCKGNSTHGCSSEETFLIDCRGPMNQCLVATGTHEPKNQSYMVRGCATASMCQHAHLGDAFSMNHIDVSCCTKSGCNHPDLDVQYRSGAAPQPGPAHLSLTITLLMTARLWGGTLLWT
T1 sequence (Q03405 23-303): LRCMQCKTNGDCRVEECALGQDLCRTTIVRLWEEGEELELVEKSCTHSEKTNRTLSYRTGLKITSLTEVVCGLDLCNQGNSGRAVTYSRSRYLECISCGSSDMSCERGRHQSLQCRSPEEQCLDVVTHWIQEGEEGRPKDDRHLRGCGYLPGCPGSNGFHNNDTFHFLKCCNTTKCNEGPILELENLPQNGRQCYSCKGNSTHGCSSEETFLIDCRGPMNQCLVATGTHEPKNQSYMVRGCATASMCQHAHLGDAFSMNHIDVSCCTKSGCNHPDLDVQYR

| Kd (human uPAR (uPAR-Fc)) [nM] | IC50 [1] [nM] | SMILES |
| --- | --- | --- |
| < 1.58 | ≤ 10 | CCCCNC(=O)N[C@H]1CSSC[C@@H](C(N)=O)NC(=O)[C@H](CCC)NC(=O)[C@H]([C@@H](C)CC)NC(=O)[C@@H]2C[C@@H](O)CN2C(=O)[C@@H]2CCCN2C(=O)[C@H](Cc2ccccc2)NC(=O)[C@H](Cc2ccc(O)cc2)NC(=O)[C@H](CCCCNC(=O)CN2CCN(CC(=O)O)CCN(CC(=O)O)CCN(CC(=O)O)CC2)NC(=O)[C@H]([C@@H](C)O)NC1=O [UPAR-242, nBuCAyl-[Cys-Thr-Lys(DOTA)-Tyr-Phe-Pro-Hyp-Ile-Nva-Cys]-NHz] ({NHBu-CO}-CTK(DOTA)YFP[Hyp]I[Nva]C-NH2; disulfide 1-10) |
| > 100 | ≥ 126 | CC[C@H](C)[C@@H]1NC(=O)[C@@H](C)NC(=O)[C@@H]2CCCN2C(=O)[C@H](Cc2ccccc2)NC(=O)[C@H](Cc2ccc(O)cc2)NC(=O)[C@H](CCC(N)=O)NC(=O)[C@H](CCCNC(N)=O)NC(=O)[C@@H](NC(C)=O)CSSC[C@@H](C(N)=O)NC(=O)[C@H](CC(C)C)NC1=O [UPAR-243, Ac-[Cys-Cit-Gln-Tyr-Phe-Pro-ala-Ile-Leu-Cys]-NH2] (Ac-C[Cit]QYFP[dA]ILC-NH2; disulfide 1-10) |
| < 1.58 | ≤ 10 | CCCC[C@@H]1NC(=O)[C@H](CCCNC(=N)N)NC(=O)[C@@H](NC(=O)[C@@H](CC(C)C)NC(=O)[C@H](CC(=O)O)NC(C)=O)CSSC[C@@H](C(N)=O)NC(=O)[C@H](CC(C)C)NC(=O)[C@H]([C@@H](C)CC)NC(=O)[C@H](C)NC(=O)[C@@H]2CCCN2C(=O)[C@H](Cc2ccccc2)NC(=O)[C@H](Cc2ccc(O)cc2)NC1=O [UPAR-244, Ac-Asp-leu-[Cys-Arg-Nle-Tyr-Phe-Pro-Ala-Ile-Leu-Cys]-NH2] (Ac-D[dL]CR[Nle]YFPAILC-NH2; disulfide 3-12) |
| 10 to 100 | 12.6 to 31.6 | CCCCC(=O)N[C@H]1CSSC[C@@H](C(N)=O)NC(=O)[C@H](CCC)NC(=O)[C@H]([C@@H](C)CC)NC(=O)[C@@H]2C[C@@H](O)CN2C(=O)[C@@H]2CCCN2C(=O)[C@H](Cc2ccccc2)NC(=O)[C@H](Cc2ccc(O)cc2)NC(=O)[C@H](CCCCNC(=O)CN2CCN(CC(=O)O)CCN(CC(=O)O)CCN(CC(=O)O)CC2)NC(=O)[C@H](CCCNC(=O)CCCC(=O)NCCOCCOCCOCCOCCC(=O)NC(COCCC(=O)NCCOCCOCCOCCOCCOCCOCCOCCOCCOCCOCCOCCOC)(COCCC(=O)NCCOCCOCCOCCOCCOCCOCCOCCOCCOCCOCCOCCOC)COCCC(=O)NCCOCCOCCOCCOCCOCCOCCOCCOCCOCCOCCOCCOC)NC1=O [UPAR-247, Pent-[Cys-Orn(TrisPEG)-Lys(DOTA)-Tyr-Phe-Pro-Hyp-Ile-Nva-Cys]-NH2] |
| > 100 | ≥ 126 | CCCCC(=O)N[C@H]1CSSC[C@@H](C(N)=O)NC(=O)[C@H](CCC)NC(=O)[C@H]([C@@H](C)CC)NC(=O)[C@@H]2C[C@@H](O)CN2C(=O)[C@@H]2CCCN2C(=O)[C@@H]2Cc3ccccc3CN2C(=O)[C@H](Cc2ccc(O)cc2)NC(=O)[C@H](CCCCNC(=O)CN2CCN(CC(=O)O)CCN(CC(=O)O)CCN(CC(=O)O)CC2)NC(=O)[C@H](CCCNC(N)=O)NC1=O [UPAR-252, Pent-[Cys-Cit-Lys(DOTA)-Tyr-Tic-Pro-Hyp-Ile-Nva-Cys]-NH2] (Pentanoyl-C[Cit]K(DOTA)Y[Tic]P[Hyp]I[Nva]C-NH2; disulfide 1-10) |
| 1.58 to 10 | ≤ 10 | CCCCC(=O)N[C@H]1CSSC[C@@H](C(N)=O)NC(=O)[C@H](CCC)NC(=O)[C@H]([C@@H](C)CC)NC(=O)[C@@H]2C[C@@H](O)CN2C(=O)[C@@H]2CCCN2C(=O)[C@H](Cc2cccnc2)NC(=O)[C@H](Cc2ccc(O)cc2)NC(=O)[C@H](CCCCNC(=O)CN2CCN(CC(=O)O)CCN(CC(=O)O)CCN(CC(=O)O)CC2)NC(=O)[C@H](CCCNC(N)=O)NC1=O [UPAR-253, Pent-[Cys-Cit-Lys(DOTA)-Tyr-Mpa-Pro-Hyp-Ile-Nva-Cys]-NH2] (Pentanoyl-C[Cit]K(DOTA)Y[3Pal]P[Hyp]I[Nva]C-NH2; disulfide 1-10) |
| < 1.58 | ≤ 10 | CC[C@H](C)[C@@H]1NC(=O)[C@@H](C)NC(=O)[C@@H]2CCCN2C(=O)[C@H](Cc2ccccc2)NC(=O)[C@H](Cc2ccc(O)cc2)NC(=O)[C@H](CCC(=O)O)NC(=O)[C@H](CCCNC(N)=O)NC(=O)[C@@H](NC(=O)CCC(C)C)CSSC[C@@H](C(N)=O)NC(=O)[C@H](CC(C)C)NC1=O [UPAR-255, iHex-[Cys-Cit-Glu-Tyr-Phe-Pro-ala-Ile-Leu-Cys]-NH2] ({Pentanoyl(4-Me)}-C[Cit]EYFP[dA]ILC-NH2; disulfide 1-10) |
| < 1.58 | ≤ 10 | CC[C@H](C)[C@@H]1NC(=O)[C@@H](C)NC(=O)[C@@H]2CCCN2C(=O)[C@H](Cc2ccccc2)NC(=O)[C@H](Cc2ccc(O)cc2)NC(=O)[C@H](CCCCNC(=O)CN2CCN(CC(=O)O)CCN(CC(=O)O)CCN(CC(=O)O)CC2)NC(=O)[C@H](CCCNC(N)=O)NC(=O)[C@@H](NC(=O)CCC(C)C)CSSC[C@@H](C(N)=O)NC(=O)[C@H](CC(C)C)NC1=O [UPAR-256, iHex-[Cys-Cit-Lys(DOTA)-Tyr-Phe-Pro-ala-Ile-Leu-Cys]-NH2] ({Pentanoyl(4-Me)}-C[Cit]K(DOTA)YFP[dA]ILC-NH2; disulfide 1-10) |
| < 1.58 | ≤ 10 | CCCCC(=O)N[C@H]1CSSC[C@@H](C(N)=O)NC(=O)[C@H](CCC)NC(=O)[C@H]([C@@H](C)CC)NC(=O)[C@@H]2C[C@@H](O)CN2C(=O)[C@@H]2CCCN2C(=O)[C@H](Cc2ccccc2)NC(=O)[C@H](Cc2ccc([N+](=O)[O-])cc2)NC(=O)[C@H](CCCCNC(=O)CN2CCN(CC(=O)O)CCN(CC(=O)O)CCN(CC(=O)O)CC2)NC(=O)[C@H](CCCNC(N)=O)NC1=O [UPAR-257, Pent-[Cys-Cit-Lys(DOTA)-Nif-Phe-Pro-Hyp-Ile-Nva-Cys]-NH2] (Pentanoyl-C[Cit]K(DOTA)[Phe(4-NO2)]FP[Hyp]I[Nva]C-NH2; disulfide 1-10) |

| SMILES | Kd (human uPAR (uPAR-Fc)) [nM] | IC50 [1] [nM] |
| --- | --- | --- |
| CCCCOC(=O)N[C@H]1CSSC[C@@H](C(N)=O)NC(=O)[C@H](CCC)NC(=O)[C@H]([C@@H](C)CC)NC(=O)[C@@H]2C[C@@H](O)CN2C(=O)[C@@H]2CCCN2C(=O)[C@H](Cc2ccccc2)NC(=O)[C@H](Cc2ccc(O)cc2)NC(=O)[C@H](CCCCNC(=O)CN2CCN(CC(=O)O)CCN(CC(=O)O)CCN(CC(=O)O)CC2)NC(=O)[C@H]([C@@H](C)O)NC1=O [UPAR-248, Butoc-[Cys-Thr-Lys(DOTA)-Tyr-Phe-Pro-Hyp-Ile-Nva-Cys]-NH2] (Butoxycarbonyl-CTK(DOTA)YFP[Hyp]I[Nva]C-NH2; disulfide 1-10) | < 1.58 | ≤ 10 |
| CCCCOC(=O)N[C@H]1CSSC[C@@H](C(N)=O)NC(=O)[C@H](CCC)NC(=O)[C@H]([C@@H](C)CC)NC(=O)[C@@H]2C[C@@H](O)CN2C(=O)[C@@H]2C[C@H](F)CN2C(=O)[C@H](Cc2ccccc2)NC(=O)[C@H](Cc2ccc(O)c(O)c2)NC(=O)[C@H](CCCCNC(=O)CN2CCN(CC(=O)O)CCN(CC(=O)O)CC2)NC(=O)[C@H]([C@@H](C)O)NC1=O [UPAR-250, Butoc-[Cys-Thr-Lys(NOTA)-Dopa-Phe-4Cfp-Hyp-Ile-Nva-Cys]-NH2] (Butoxycarbonyl-CTK(NOTA)[Dopa]F[Pro(cis-4-F)][Hyp]I[Nva]C-NH2; disulfide 1-10) | < 1.58 | ≤ 10 |
